{"source": "patent US11458120B2", "about": "“Aptamer-drug conjugate and use thereof” (priority 2016, dated 2022)", "key": {"[1]": {"test_system": "A549 lung cancer cell line-injected mice", "test": "In vivo therapeutic efficacy on A549 lung cancer cell line-injected mice (FDG PET, tumor size)", "parameters": "species or system nude mouse", "conditions": "i.v. 4 times by 5 day intervals, conjugate 7.5 mg/kg (0.5 mg/kg of MMAE) or MMAE 0.5 mg/kg, 30 days after start of treatment", "procedure": "To A549 lung cancer cell line-injected mice, MMAE-(PAB-Cit-Val-MC-S-C6)-T3-AS1411 and MMAE, respectively, were administered by IV injection for 30 days, followed by identifying tumor sizes through PET images. A549 lung cancer cells in a number of 6.1×10^6 cells/ml were injected subcutaneously in the right thigh of each nude mouse. The tumor size was measured in 3 to 4 weeks after the injection and, when a diameter of the tumor reached 0.8 cm, microPET images were captured before treatment. For PET images, F-18 FDG 0.2 mCi was i.p. injected and then the images were captured (Siemens Inveon). After detection of FDG intake in the tumor from the images, MMAE-(PAB-Cit-Val-MC-S-C6)-T3-AS1411 was i.v. injected in an experimental group of 5 mice 4 times by 5 day intervals (7.5 mg/kg, 0.5 mg/kg of MMAE). […]\nTo A549 lung cancer cell-injected mice, MMAE was administered by IV injection for 30 days, followed by observation of PET images. […] The tumor size was measured in 3 to 4 weeks after the injection and, when a diameter of the tumor reached 0.8 cm, microPET images were captured before treatment. […]\nAs compared to administration of MMAE alone, it was determined that MMAE-(PAB-Cit-Val-MC-S-C6)-T3-AS1411 inhibits 80% more cancer. After the start of treatment, sizes of tumors were measured in both of horizontal and vertical axes by 5 day intervals. […]"}, "[2]": {"test_system": "Mv4-11 AML cell line-injected mice", "test": "In vivo therapeutic efficacy on Mv4-11 AML cell line-injected mice (FDG PET)", "parameters": "species or system nude mouse", "conditions": "Mv4-11 AML tumor, i.v. 4 times by 5 day intervals, conjugate 7.5 mg/kg or MMAE 0.5 mg/kg, 30 days after start of treatment", "procedure": "To Mv4-11 AML cell line-injected mice, citravin-(GLFG-MC-S-C6)-T3-AS1411 and MMAE, respectively, were administered by IV injection for 30 days, followed by identifying tumor sizes through PET images. Mv4-11 AML cells in a number of 6.1×10^6 cells/ml were injected subcutaneously in the right thigh of each nude mouse. The tumor size was measured in 3 to 4 weeks after the injection and, when a diameter of the tumor reached 0.8 cm, microPET images were captured before treatment. For PET images, F-18 FDG 0.2 mCi was i.p. injected and then the images were captured (Siemens Inveon). After detection of FDG intake in the tumor from the images, citravin-(GLFG-MC-S-C6)-T3-AS1411 was i.v. injected in an experimental group of 5 mice 4 times by 5 day intervals (7.5 mg/kg, 0.5 mg/kg of MMAE). After 30 days from the start of treatment, microPET images were captured by the same method as used before treatment (FIG. 13 and FIG. 14).\nTo Mv4-11 AML cell line-injected mice, MMAE was administered by IV injection for 30 days, followed by observation of PET images. Mv4-11 AML cells in the number of 6.1×10^6 cells/ml were injected subcutaneously in the right thigh of each nude mouse. The tumor size was measured in 3 to 4 weeks after the injection and, when a diameter of the tumor reached 0.8 cm, microPET images were captured before treatment. […]"}, "[3]": {"conditions": "reported by the Weihong Tang group, University of Florida; cited from earlier work"}, "Mv4-11 cell line": {"test_system": "Mv4-11 cell line", "test": "MTT assay to Mv4-11 cell lines", "assay_type": "cell-based", "conditions": "Mv4-11 cells, 72 hours incubation, absorbance at 490 nm, FIG. 6", "procedure": "With regard to Mv4-11 cell line as a […] over-expressing a nucleoline protein, cell inhibition efficacy of citravin-(GLFG-MC-S-C6)-T3-AS1411 was verified in vitro by MTT assay. […] Mv4-11 cells (ATCC, IMDM+10% FBS) were seeded on a 96-well plate in a cell number of 2.5 to 5×10^5 cells/well, which was determined by a cell test method to determine an appropriate cell concentration, followed by growing for 1 day. After heating each of citravin-(GLFG-MC-S-C6)-T3-AS1411 and citravin-(GLFG-MC-S-C6)-T3-CRO at 95° C. for 5 minutes, the heated product was gradually cooled at room temperature and directly treated on each well at different concentrations. After incubating the treated A549 cells in 5% CO2 incubator for 72 hours, the incubated product was treated with 20 μL of a reagent solution for MTT assay (Cell Proliferation kit II, Roche) and incubated for different periods of time (10 min, 30 min, 1 hr). Thereafter, the final product was subjected to measurement of absorbance at 490 nm by an ELISA reader (FIG. 6)."}, "A549 cell line": {"test_system": "A549 cell line", "test": "MTT assay to A549 cell lines", "assay_type": "cell-based", "conditions": "A549 cells, 72 hours incubation, FIG. 17 and FIG. 18", "procedure": "With regard to A549 cell line as a lung cancer cell line over-expressing a nucleoline protein, cell inhibition efficacy of MMAE-(PAB-Cit-Val-MC-S-C6)-T3-AS1411 was verified in vitro by MTT assay. […] A549 cells (ATCC, IMDM+10% FBS) were seeded on a 96-well plate in a cell number of 2.5 to 5×10^5 cells/well, which was determined by a cell test method to determine an appropriate cell concentration, followed by growing for 1 day. After heating each of MMAE-(PAB-Cit-Val-MC-S-C6)-T3-AS1411 and MMAE-(PAB-Cit-Val-MC-S-C6)-T3-CRO at 95° C. for 5 minutes, the heated product was gradually cooled at room temperature and directly treated on each well at different concentrations. […] Thereafter, the final product was subjected to measurement of absorbance at 490 nm by an ELISA reader (FIG. 5).\nWith regard to A549 cell line as a lung cancer cell line over-expressing a nucleoline protein, cell inhibition efficacies of MMAE-(PAB-Cit-Val-MC-S-C6)-T3-AS1411, 12 or 13-(MMAE-PAB-Cit-Val-MC-S-C6)-AS1411 and 12,13-(MMAE-PAB-Cit-Val-MC-S-C6)2-AS1411 were verified in vitro by MTT assay. […] A549 cells (ATCC, IMDM+10% FBS) were seeded on a 96-well plate in a cell number of 2.5 to 5×10^5 cells/well, which was determined by a cell test method to determine an appropriate cell concentration, followed by growing for 1 day. […]"}}, "note": "Non-standard residues stand in square brackets, D forms with d. Residues, ends and D or L forms follow the SMILES beside them. *: point of attachment. Dolaproine = CO[C@@H]([C@@H]1CCCN1)[C@@H](C)C(=O)O; Dil = CC[C@H](C)[C@H](NC)[C@@H](CC(=O)O)OC; X1 = C[C@@H](N*)[C@@H](O)c1ccccc1; NMeV = CN[C@H](C(=O)O)C(C)C", "data": [{"compound": "CC[C@H](C)[C@@H]([C@@H](CC(=O)N1CCC[C@H]1[C@H](OC)[C@@H](C)C(=O)N[C@H](C)[C@@H](O)c1ccccc1)OC)N(C)C(=O)[C@@H](NC(=O)[C@@H](NC)C(C)C)C(C)C", "note": "[MMAE, monomethyl auristatin E, reference compound] (H-[NMeV]V[Dil][Dolaproine]-X1)", "values": [{"measurement": "FDG intake in the tumor from PET images, after vs before treatment", "setting": "[1]", "value": "FDG intake in the tumor was increased even after treatment"}, {"measurement": "FDG intake in the tumor from PET images, after vs before treatment", "setting": "[2]", "value": "FDG intake in the tumor was increased even after treatment"}]}, {"compound": "COc1cccc2c1C(=O)c1c(O)c3c(c(O)c1C2=O)C[C@@](O)(C(=O)CO)C[C@@H]3O[C@H]1C[C@H](N)[C@H](O)[C@H](C)O1", "note": "[doxorubicin]", "values": [{"measurement": "cytotoxic effects", "setting": "[3]", "value": 20, "unit": "%"}]}, {"compound": "citravin-(Gly-Leu-Phe-Gly (SEQ ID NO: 8))-Mal-S-C6-tttggtggtggtggttgtggtggtggtgg [citravin-(GLFG-MC-S-C6)-T3-AS1411]", "values": [{"measurement": "cell inhibition efficacy (cell viability and cell proliferation) by MTT assay, compared with citravin", "setting": "Mv4-11 cell line", "value": "almost the same efficacy as citravin"}, {"measurement": "FDG intake in the tumor from PET images, after vs before treatment", "setting": "[2]", "value": "a decrease in FDG intake in the tumor is observed"}]}, {"compound": "ggtggtggtggu (SEQ ID NO: 4)[5-N-(6-(3-monomethyl auristatin-p-aminobenzoyloxycarbonyl-citrulline-valine-Mal-thiopropanoyl)-aminohexyl)-3-acrylamido]u[5-N-(6-(3-monomethyl auristatin-p-aminobenzoyloxycarbonyl-citrulline-valine-Mal-thiopropanoyl)-aminohexyl)-3-acrylamido]gtggtggtggtgg (DNA GGTGGTGGTGGU; two MMAE-linker conjugates at positions 12,13, chemistry not fully specified) [12,13-(MMAE-PAB-Cit-Val-MC-S-C6)2-AS1411]", "values": [{"measurement": "cell inhibition efficacy by MTT assay, comparison between MMAE-linker-aptamer conjugates", "setting": "A549 cell line", "value": "superior efficacy over of MMAE-(PAB-Cit-Val-MC-S-C6)-T3-AS1411"}]}]}
